Experimental data taken from patent publication US20200038423A1, “USE OF 6-O-(C8-C20 ALKYL ESTER) OF 1-O-(C1-C6 ALKYL)-ß-D-GLUCOSIDE AS AN AGENT FOR PROTECTING THE SKIN” (PIERRE FABRE DERMO-COSMETIQUE, priority 2016, published 2020).

How the values were obtained:
Type in all cases: cell-based
[1] = test system: Normal human keratinocytes; assay: Keratinocyte differentiation judged from RT-qPCR of 6 target genes; settings: 20 μM, incubation for 48 h
Description: (§1) Normal human keratinocytes were incubated for 48 h with 1-O-n-butyl-β-D-glucoside 6-O-lauroyl. Its effects were evaluated using the RT-qPCR technique with the analysis of 6 target genes, chosen for their importance in keratinocyte differentiation and hydration.

[2] = test system: primary normal human keratinocytes; assay: Oris Cell Migration Assay, keratinocyte migration; settings: for % Stim (% stimulation of keratinocyte migration): 24 h migration
Description: Oris™ Cell Migration Assays were used to estimate cell migration.
Primary normal human keratinocytes isolated from tissues extracted during cosmetic surgery were seeded on 96-well plates and cultured in KSFM supplemented with 25 μg/ml bovine pituitary extract (BPE, Invitrogen) and 0.2 ng/ml EGF (Invitrogen). After 24 h of incubation, the culture medium is replaced with KSM without supplement. After 24 h of incubation, the Oris™ stoppers as well as the test compounds or positive controls are removed. The latter are 5 ng/ml TGF-β, 30 ng/ml EGF, or KSM supplemented with BPE and EGF. Incubation continues for the next 24 h to allow migration. At the end of incubation, Calcein AM dye, which penetrates the cells, is added to the wells and is converted to fluorescence which is then quantified in a detection zone using a monochromatic microplate (Clariostar, BMG Labteck).
The compound tested is 1-O-n-butyl-β-D-glucoside 6-O-lauroyl, it is solubilized in DMSO at a concentration of 100 mM. The compound is tested at 2, 10 and 20 μM. The effect of DMSO at the tested concentrations has no effect on keratinocyte migration. The experiments are repeated on 2 donors with 8 wells for each condition.
The quantification of the fluorescence emitted in the detection zone is proportional to keratinocyte migration. Statistical analyses (Mann-Whitney test) are used to analyze the effect of the compound. After fluorescence quantification, the cells were rapidly fixed in 4% paraformaldehyde before eosin-hematoxylin staining and observed under a microscope.

[3] = test system: SULT2B1; assay: RT-qPCR, modulation of genes involved in keratinocyte differentiation and hydration: SULT2B1; settings: CaCl2 1.5 mM; normal human keratinocytes, 48 h; lipid differentiation marker
Description: as §1

[4] = test system: FABP5; assay: RT-qPCR, modulation of genes involved in keratinocyte differentiation and hydration: FABP5; settings: CaCl2 1.5 mM; normal human keratinocytes, 48 h; lipid differentiation marker
Description: as §1

[5] = test system: DEGS2; assay: RT-qPCR, modulation of genes involved in keratinocyte differentiation and hydration: DEGS2; settings: CaCl2 1.5 mM; normal human keratinocytes, 48 h; lipid differentiation marker
Description: as §1

[6] = test system: KLK7; assay: RT-qPCR, modulation of genes involved in keratinocyte differentiation and hydration: KLK7; settings: CaCl2 1.5 mM; normal human keratinocytes, 48 h; protein differentiation marker
Description: as §1

[7] = test system: TGM1; assay: RT-qPCR, modulation of genes involved in keratinocyte differentiation and hydration: TGM1; settings: CaCl2 1.5 mM; normal human keratinocytes, 48 h; protein differentiation marker
Description: as §1

[8] = test system: CASP14; assay: RT-qPCR, modulation of genes involved in keratinocyte differentiation and hydration: CASP14; settings: CaCl2 1.5 mM; normal human keratinocytes, 48 h; protein differentiation marker
Description: as §1

CCCCCCCCCCCC(=O)OC[C@H]1O[C@@H](OCCCC)[C@H](O)[C@@H](O)[C@@H]1O [β-LBG, 1-O-n-butyl-β-D-glucoside 6-O-lauroyl]
keratinocyte differentiation [1]: induces reproducible keratinocyte differentiation
keratinocyte migration ([2]; both donors tested, at either 10 μM or 20 μM): stimulates keratinocyte migration
migration of normal human keratinocytes ([2]; concentrations of 10 to 20 μM): significantly stimulates
% Stim (% stimulation of keratinocyte migration) ([2]; donor 1, 2 μM): −30%
% Stim (% stimulation of keratinocyte migration) ([2]; donor 1, 10 μM): 41%
% Stim (% stimulation of keratinocyte migration) ([2]; donor 1, 20 μM): 104%
% Stim (% stimulation of keratinocyte migration) ([2]; donor 2, 2 μM): 46%
% Stim (% stimulation of keratinocyte migration) ([2]; donor 2, 10 μM): 63%
% Stim (% stimulation of keratinocyte migration) ([2]; donor 2, 20 μM): 21%

[Ca+2].[Cl-].[Cl-] [CaCl2]
SULT2B1 expression, Mean (% Control) [3]: 1169 % Control
FABP5 expression, Mean (% Control) [4]: 501 % Control
DEG S2 expression, Mean (% Control) [5]: 217 % Control
KLK7 expression, Mean (% Control) [6]: 994 % Control
TGM1 expression, Mean (% Control) [7]: 910 % Control
CASP14 expression, Mean (% Control) [8]: 127 % Control

EGF: positive control of migration, 30 ng/ml EGF [reference compound]
% Stim (% stimulation of keratinocyte migration) ([2]; donor 1, 30 ng/ml): 35%
% Stim (% stimulation of keratinocyte migration) ([2]; donor 2, 30 ng/ml): 87%
